# From ChEMBL document CHEMBL1201862, “PubChem BioAssay data set” (2004)
#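 Cells were grown in 96-well plates and exposed to each compound for 48 hours at five concentrations; endpoints were interpolated linearly between bracketing concentrations, or set to the highest concentration if not reached. GI50 marks 50% less growth.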 Active and inactive are the calls of the source. No stated cut-off is given here; in the data, active = GI50 up to about 1.1 µM and inactive = higher.
# What was measured:
# Assay in all cases: NCI anticancer screen, dose series, 48 h
# 786-0 = test system: 786-0
# A498 = test system: A498
# A549 = test system: A549
# ACHN = test system: ACHN
# CCRF-CEM = test system: CCRF-CEM
# COLO 205 = test system: COLO 205
# DU-145 = test system: DU-145
# EKVX = test system: EKVX
# HCT-116 = test system: HCT-116
# HCT-15 = test system: HCT-15
# HOP-62 = test system: HOP-62
# HOP-92 = test system: HOP-92
# HT-29 = test system: HT-29
# Hs-578T = test system: Hs-578T
# IGROV-1 = test system: IGROV-1
# K562 = test system: K562
# KM12 = test system: KM12
# LOX IMVI = test system: LOX IMVI
# M14 = test system: M14
# MCF7 = test system: MCF7
# MDA-MB-231 = test system: MDA-MB-231
# MDA-MB-435 = test system: MDA-MB-435
# MDA-N = test system: MDA-N
# MOLT-4 = test system: MOLT-4
# Malme-3M = test system: Malme-3M
# NCI-H226 = test system: NCI-H226
# NCI-H23 = test system: NCI-H23
# NCI/ADR-RES = test system: NCI/ADR-RES
# OVCAR-3 = test system: OVCAR-3
# OVCAR-4 = test system: OVCAR-4
# OVCAR-5 = test system: OVCAR-5
# OVCAR-8 = test system: OVCAR-8
# PC-3 = test system: PC-3
# RPMI-8226 = test system: RPMI-8226
# SF-268 = test system: SF-268
# SF-295 = test system: SF-295
# SK-MEL-28 = test system: SK-MEL-28
# SK-MEL-2 = test system: SK-MEL-2
# SK-MEL-5 = test system: SK-MEL-5
# SK-OV-3 = test system: SK-OV-3
# SN12C = test system: SN12C
# SNB-19 = test system: SNB-19
# SNB-75 = test system: SNB-75
# SR = test system: SR
# SW-620 = test system: SW-620
# TK-10 = test system: TK-10
# U-251 = test system: U-251
# UACC-257 = test system: UACC-257
# UACC-62 = test system: UACC-62
# UO-31 = test system: UO-31
# NCI-H522 = test system: NCI-H522
# SF-539 = test system: SF-539
# CAKI-1 = test system: CAKI-1
# RXF 393 = test system: RXF 393
# T47D = test system: T47D
compound,measurement,setting,value
CC(=O)OCC(=O)OC[C@H](OCc1ccccc1)[C@@H]1[C@H](OC(C)=O)C(=O)N1Cc1ccccc1,GI50,786-0,> 100 µM (inactive)
same,GI50,A498,> 100 µM (inactive)
same,GI50,A549,> 100 µM (inactive)
same,GI50,ACHN,> 100 µM (inactive)
same,GI50,CCRF-CEM,> 100 µM (inactive)
same,GI50,COLO 205,> 100 µM (inactive)
same,GI50,DU-145,> 100 µM (inactive)
same,GI50,EKVX,> 100 µM (inactive)
same,GI50,HCT-116,> 100 µM (inactive)
same,GI50,HCT-15,> 100 µM
same,GI50,HOP-62,> 100 µM (inactive)
same,GI50,HOP-92,> 100 µM (inactive)
same,GI50,HT-29,> 100 µM (inactive)
same,GI50,Hs-578T,> 100 µM (inactive)
same,GI50,IGROV-1,> 100 µM (inactive)
same,GI50,K562,> 100 µM (inactive)
same,GI50,KM12,> 100 µM (inactive)
same,GI50,LOX IMVI,> 100 µM (inactive)
same,GI50,M14,> 100 µM (inactive)
same,GI50,MCF7,> 100 µM (inactive)
same,GI50,MDA-MB-231,> 100 µM (inactive)
same,GI50,MDA-MB-435,> 100 µM (inactive)
same,GI50,MDA-N,> 100 µM (inactive)
same,GI50,MOLT-4,> 100 µM (inactive)
same,GI50,Malme-3M,> 100 µM (inactive)
same,GI50,NCI-H226,> 100 µM (inactive)
same,GI50,NCI-H23,> 100 µM (inactive)
same,GI50,NCI/ADR-RES,> 100 µM (inactive)
same,GI50,OVCAR-3,> 100 µM (inactive)
same,GI50,OVCAR-4,> 100 µM (inactive)
same,GI50,OVCAR-5,> 100 µM (inactive)
same,GI50,OVCAR-8,> 100 µM (inactive)
same,GI50,PC-3,> 100 µM (inactive)
same,GI50,RPMI-8226,> 100 µM (inactive)
same,GI50,SF-268,> 100 µM (inactive)
same,GI50,SF-295,> 100 µM (inactive)
same,GI50,SK-MEL-28,> 100 µM (inactive)
same,GI50,SK-MEL-2,> 100 µM (inactive)
same,GI50,SK-MEL-5,> 100 µM (inactive)
same,GI50,SK-OV-3,> 100 µM (inactive)
same,GI50,SN12C,> 100 µM (inactive)
same,GI50,SNB-19,> 100 µM (inactive)
same,GI50,SNB-75,> 100 µM (inactive)
same,GI50,SR,> 100 µM (inactive)
same,GI50,SW-620,> 100 µM (inactive)
same,GI50,TK-10,> 100 µM (inactive)
same,GI50,U-251,> 100 µM (inactive)
same,GI50,UACC-257,> 100 µM (inactive)
same,GI50,UACC-62,> 100 µM (inactive)
same,GI50,UO-31,> 100 µM (inactive)
CCn1ncc(N=O)c1N,GI50,A549,> 100 µM (inactive)
same,GI50,CCRF-CEM,> 100 µM (inactive)
same,GI50,COLO 205,> 100 µM (inactive)
same,GI50,HCT-116,> 100 µM (inactive)
same,GI50,Hs-578T,> 100 µM (inactive)
same,GI50,IGROV-1,> 100 µM (inactive)
same,GI50,K562,> 100 µM (inactive)
same,GI50,KM12,> 100 µM (inactive)
same,GI50,M14,> 100 µM (inactive)
same,GI50,MDA-N,> 100 µM (inactive)
same,GI50,NCI-H23,> 100 µM (inactive)
same,GI50,NCI-H522,> 100 µM (inactive)
same,GI50,RPMI-8226,> 100 µM (inactive)
same,GI50,SF-268,> 100 µM (inactive)
same,GI50,SF-539,> 100 µM (inactive)
same,GI50,SNB-19,> 100 µM (inactive)
C[N+]12CCN(c3ccccc31)c1ccccc12.[O-][Cl+3]([O-])([O-])[O-],GI50,A498,> 10 µM (inactive)
same,GI50,A549,4.91 µM (inactive)
same,GI50,ACHN,> 10 µM (inactive)
same,GI50,CAKI-1,> 10 µM (inactive)
same,GI50,COLO 205,7.73 µM (inactive)
same,GI50,DU-145,> 10 µM (inactive)
same,GI50,EKVX,6.15 µM (inactive)
same,GI50,HCT-15,> 10 µM
same,GI50,HOP-92,> 10 µM (inactive)
same,GI50,HT-29,> 10 µM (inactive)
same,GI50,IGROV-1,> 10 µM (inactive)
same,GI50,KM12,> 10 µM (inactive)
same,GI50,M14,> 10 µM (inactive)
same,GI50,MDA-MB-231,> 10 µM (inactive)
same,GI50,MDA-MB-435,> 10 µM (inactive)
same,GI50,MDA-N,2.79 µM (inactive)
same,GI50,NCI-H23,4.95 µM (inactive)
same,GI50,NCI/ADR-RES,> 10 µM (inactive)
same,GI50,OVCAR-3,3.44 µM (inactive)
same,GI50,OVCAR-4,> 10 µM (inactive)
same,GI50,OVCAR-5,> 10 µM (inactive)
same,GI50,OVCAR-8,7.16 µM (inactive)
same,GI50,PC-3,> 10 µM (inactive)
same,GI50,RXF 393,> 10 µM (inactive)
same,GI50,SF-268,4.79 µM (inactive)
same,GI50,SF-295,7.46 µM (inactive)
same,GI50,SK-MEL-28,> 10 µM (inactive)
same,GI50,SK-MEL-5,2.29 µM (inactive)
same,GI50,SN12C,7.28 µM (inactive)
same,GI50,SNB-19,> 10 µM (inactive)
same,GI50,SNB-75,6.28 µM (inactive)
same,GI50,SW-620,> 10 µM (inactive)
same,GI50,TK-10,> 10 µM (inactive)
same,GI50,U-251,6.01 µM (inactive)
same,GI50,UO-31,> 10 µM (inactive)
Cc1cc(/N=C/c2c(CO)cnc(C)c2O)c(/N=C/c2c(CO)cnc(C)c2O)cc1C,GI50,CCRF-CEM,17 µM (inactive)
same,GI50,DU-145,> 100 µM (inactive)
same,GI50,EKVX,> 100 µM (inactive)
same,GI50,HCT-15,> 100 µM
same,GI50,K562,> 100 µM (inactive)
same,GI50,MCF7,75.9 µM (inactive)
same,GI50,MDA-MB-435,> 100 µM (inactive)
same,GI50,Malme-3M,> 100 µM (inactive)
same,GI50,NCI-H23,> 100 µM (inactive)
same,GI50,NCI-H522,78.9 µM (inactive)
same,GI50,OVCAR-3,> 100 µM (inactive)
same,GI50,OVCAR-5,> 100 µM (inactive)
same,GI50,PC-3,> 100 µM (inactive)
same,GI50,RXF 393,> 100 µM (inactive)
same,GI50,SF-268,> 100 µM (inactive)
same,GI50,SF-539,95.9 µM (inactive)
same,GI50,SK-MEL-28,> 100 µM (inactive)
same,GI50,SK-OV-3,> 100 µM (inactive)
same,GI50,SN12C,> 100 µM (inactive)
same,GI50,SW-620,> 100 µM (inactive)
same,GI50,T47D,> 100 µM (inactive)
same,GI50,U-251,> 100 µM (inactive)
same,GI50,UACC-257,> 100 µM (inactive)
